Consider 15 molecules from US12091425B2 (AMGEN INC., priority 2016, dated 2024).

Assay [1] has as its target T1, Mcl-1/Bim interaction, recombinant human Mcl-1 (171-327) (Homo sapiens, UniProt Q07820).
T1 construct: made in house
As to the kind of experiment: Cell free Mcl-1: Bim Affinity Assay (Mcl-1 HTRF). It counts as binding. Summed up: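 Biotin-Bim(51-76) peptide, TR-FRET readout, overnight incubation; IC50 from duplicate competition curves, 4-parameter fit.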
In general terms: In TR-FRET formats the signal depends on donor and acceptor labels being close together.

For assay [2], the system named is OPM-2 human multiple myeloma cell line. As to the kind of experiment: Cell Viability Assay (OPM-2 10 FBS). It counts as cell-based. The conditions noted are these: OPM-2 cells, CellTiter-Glo. Summed up:
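Plated at 3000 cells/well in 10% FBS complete medium, the cells received a serial compound dilution series and incubated 16 h at 37 °C with 5% CO2. CellTiter-Glo was then added; IC50 values were fitted with a logistic 4-parameter model.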
(In ATP-based viability assays light output follows the ATP content of the culture.)

Setting [3] is: cell free Mcl-1:Bim TR-FRET, recombinant human Mcl-1 (171-327).
[4] abbreviates: Homo sapiens, OPM-2, 16 h, 16 h.
[5] abbreviates: TR-FRET, 0.1 nM Mcl-1 (171-327), 0.05 nM biotin-Bim (51-76).
[6] abbreviates: Homo sapiens, OPM-2, 16 h, 16 h incubation.

T1 sequence (Q07820 171-327): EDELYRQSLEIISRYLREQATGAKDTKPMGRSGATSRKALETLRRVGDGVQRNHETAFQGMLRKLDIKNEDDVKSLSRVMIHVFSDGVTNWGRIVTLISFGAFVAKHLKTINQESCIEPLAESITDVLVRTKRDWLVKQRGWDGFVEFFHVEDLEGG

As usually defined, the IC50 is the concentration that gives 50% inhibition. For `COC(=O)CN[C@H]1/C=C/CC[C@@H](C)S(=O)(=O)NC(=O)c2ccc3c(c2)N(C[C@@H]2CC[C@H]21)C[C@@]1(CCCc2cc(Cl)ccc21)CO3` [Example 599, methyl N-((1S,3′R,6′R,7′S,8′E,12′R)-6-chloro-12′-methyl-13′,13′-dioxido-15′-oxo-3,4-dihydro-2H-spiro[naphthalene-1,22′-[20]oxa[13]thia[1,14]diazatetracyclo[14.7.2.0^3,6.0^19,24]pentacosa [8,16,18,24]tetraen]-7′-yl)glycinate-trifluoroacetic Acid], the values for the IC50 in assay [1] (setting [3]) and in assay [2] (setting [4]) were 0.00151 µM and 0.651 µM, respectively.
Take `C[C@@H]1CC/C=C/[C@H](O[C@@H]2CCOC2=O)[C@@H]2CC[C@H]2CN2C[C@@]3(CCCc4cc(Cl)ccc43)COc3ccc(cc32)C(=O)NS1(=O)=O` (single isomer, unassigned) [Example 414]: the IC50 turned out to be 0.000188 µM in assay [1] (setting [5]) and 0.161 µM in assay [2] (setting [4]).
Turning to `C[C@@H]1[C@@H](C)C/C=C/[C@H](OCCN2C[C@H]3C[C@@H]2CO3)[C@@H]2CC[C@H]2CN2C[C@@]3(CCCc4cc(Cl)ccc43)COc3ccc(cc32)C(=O)NS1(=O)=O` [Example 521, (1S,3′R,6′R,7′S,8′E,11′S,12′R)-6-chloro-11′,12′-dimethyl-7′-(2-((1R,4R)-2-oxa-5-azabicyclo[2.2.1]hept-5-yl)ethoxy)-3,4-dihydro-2H,15′H-spiro[naphthalene-1,22′-[20]oxa[13]thia[1,14]diazatetracyclo[14.7.2.0^3,6.0^19,24]pentacosa [8,16,18,24]tetraen]-15′-one 13′,13′-dioxide 2,2,2-trifluoroacetic Acid], the IC50 in assay [1] (setting [3]) was 0.000291 µM; in assay [2] (setting [4]), 0.166 µM.
As for `CO[C@H](C)C[C@H]1CC/C=C/[C@H](O)[C@@H]2CC[C@H]2CN2C[C@@]3(CCCc4cc(Cl)ccc43)COc3ccc(cc32)C(=O)NS1(=O)=O` (single isomer, unassigned) [Example 508], the IC50 was found to be 0.00602 µM in assay [1] (setting [3]) and 2.47 µM in assay [2] (16 h).
As for `C[C@@H]1[C@@H](C)C/C=C/[C@H](OCC(=O)O)[C@@H]2CC[C@H]2CN2C[C@@]3(CCCc4cc(Cl)ccc43)COc3cc(CC(=O)O)c(cc32)C(=O)NS1(=O)=O` [Example 293, ((1S,3′R,6′R,7′S,8′E,11′S,12′R)-7′-(carboxymethoxy)-6-chloro-11′,12′-dimethyl-13′,13′-dioxido-15′-oxo-3,4-dihydro-2H-spiro[naphthalene-1,22′-[20]oxa[13]thia[1,14]diazatetracyclo[14.7.2.0^3,6.0^19,24]pentacosa [8,16,18,24]tetraen]-17′-yl)acetic acid], the IC50 turned out to be 0.00036 µM in assay [1] (setting [5]) and 27.6 µM in assay [2] (setting [4]).
For the molecule `CO[C@H]1/C=C/[C@H](C)C[C@@H](C)S(=O)(=O)NC(=O)c2ccc3c(c2)N(C[C@@H]2CC[C@H]21)C[C@@]1(CCCc2cc(Cl)ccc21)CO3` [Example 1016, (1S,3′R,6′R,7′S,8′E,10′R,12′R)-6-chloro-7′-methoxy-10′,12′-dimethyl-3,4-dihydro-2H,15′H-spiro[naphthalene-1,22′-[20]oxa[13]thia[1,14]diazatetracyclo[14.7.2.0^3,6.0^19,24]pentacosa [8,16,18,24]tetraen]-15′-one 13′,13′-dioxide], the IC50 in assay [1] (setting [5]) worked out at 0.000483 µM; in assay [2] (setting [6]), 0.291 µM.
Consider `COCCN1CCC/C=C/[C@H](O)[C@@H]2CC[C@H]2CN2C[C@@]3(CCCc4cc(Cl)ccc43)COc3ccc(cc32)C(=O)NS1(=O)=O` [Example 665, (1S,3′R,6′R,7′S,8′E)-6-chloro-7′-hydroxy-13′-(2-methoxyethyl)-3,4-dihydro-2H,16′H-spiro[naphthalene-1,23′-[21]oxa[14]thia[1,13,15]triazatetracyclo[15.7.2.0^3,6.0^20,25]hexacosa[8,17,19,25]tetraen]-16′-one 14′,14′-dioxide], for which the IC50 in assay [1] (setting [3]) was 0.00289 µM; in assay [2] (setting [4]), 1.31 µM.
For `CCN1[C@H](C)CCC[C@H](O)[C@@H]2CC[C@H]2CN2C[C@@]3(CCCc4cc(Cl)ccc43)COc3ccc(cc32)C(=O)NS1(=O)=O` [Example 84, (1S,3′R,6′R,7′S,11R)-6-chloro-12′-ethyl-7′-hydroxy-11′-methyl-3,4-dihydro-2H,15′H-spiro[naphthalene-1,22′-[20]oxa[13]thia[1,12,14]triazatetracyclo[14.7.2.0^3,6.0^19,24]pentacosa[16,18,24]trien]-15′-one 13′,13′-dioxide], the IC50 was found to be 0.0132 µM in assay [1] (setting [5]) and 5.9 µM in assay [2] (setting [4]).
As to `COC(=O)CC[C@@]1(C)CC/C=C\[C@H](O)[C@@H]2CC[C@H]2CN2C[C@@]3(CCCc4cc(Cl)ccc43)COc3ccc(cc32)C(=O)NS1(=O)=O` (single isomer, unassigned) [Example 563], the IC50 in assay [1] (setting [3]) was found to be 0.00269 µM; in assay [2] (16 h) it was 4.5 µM.
On to `C[C@@H]1/C=C/[C@@H](O)[C@@H]2CC[C@H]2CN2C[C@@]3(CCCc4cc(Cl)ccc43)COc3ccc(cc32)C(=O)NS(=O)(=O)C[C@@H]1C` (single isomer, unassigned) [Example 1062], for which the results for the IC50 in assay [1] (setting [5]) and in assay [2] (16 h incubation) were 0.00788 µM and 12.6 µM, respectively.
With `COCC[C@@H]1C[C@@H](C)/C=C/[C@H](OC)[C@@H]2CC[C@H]2CN2C[C@@]3(CCCc4cc(Cl)ccc43)COc3ccc(cc32)C(=O)NS1(=O)=O` (single isomer, unassigned) [Example 484], the IC50 is 0.000331 µM in assay [1] (setting [3]) and 0.412 µM in assay [2] (16 h).
For `C[C@@H]1[C@@H](C)C=C/C=C/[C@@H]2CC[C@H]2CN2C[C@@]3(CCCc4cc(Cl)ccc43)COc3ccc(cc32)C(=O)NS1(=O)=O` (stereo in doubt) [Example 372, (1S,3′R,6′S,7′E,9′E,11′S,12′R)-6-chloro-11′,12′-dimethyl-3,4-dihydro-2H,15′H-spiro[naphthalene-1,22′-[20]oxa[13]thia[1,14]diazatetracyclo[14.7.2.0^3,6.0^19,24]pentacosa [7,9,16,18,24]pentaen]-15′-one 13′,13′-dioxide], the figures for the IC50 in assay [1] (setting [5]) and in assay [2] (setting [4]) were 0.00949 µM and 14.6 µM, respectively.
With `CC(C)(O)C[C@@H]1CC/C=C/[C@H](O)[C@@H]2CC[C@H]2CN2C[C@@]3(CCCc4cc(Cl)ccc43)COc3ccc(cc32)C(=O)NS1(=O)=O` (single isomer, unassigned) [Example 559], the values for the IC50 in assay [1] (setting [3]) and in assay [2] (16 h) were 0.000598 µM and 4.42 µM, respectively.
`COc1ccc(CN2[C@@H](C)C/C=C\[C@H](O)[C@@H]3CC[C@H]3CN3C[C@@]4(CCCc5cc(Cl)ccc54)COc4ccc(cc43)C(=O)NS2(=O)=O)cc1` (single isomer, unassigned) [Example 81]: the IC50 in assay [1] (setting [5]) stood at 0.0386 µM; in assay [2] (setting [4]), 6.44 µM.
As for `CC[C@@H]1C[C@@H](C)/C=C/[C@H](OCCN2CCOCC2)[C@@H]2CC[C@H]2CN2C[C@@]3(CCCc4cc(Cl)ccc43)COc3ccc(cc32)C(=O)NS1(=O)=O` [Example 1026, (1S,3′R,6′R,7′S,8′E,10′R,12′R)-6-chloro-12′-ethyl-10′-methyl-7′-(2-(4-morpholinyl)ethoxy)-3,4-dihydro-2H,15′H-spiro[naphthalene-1,22′-[20]oxa[13]thia[1,14]diazatetracyclo[14.7.2.0^3,6.0^19,24]pentacosa [8,16,18,24]tetraen]-15′-one 13′,13′-dioxide], the IC50 was 0.00113 µM in assay [1] (setting [5]) and 0.288 µM in assay [2] (setting [6]).
